Assay results published in the RepoRT retention time repository.

Test: RP, Waters CORTECS UPLC C18, 100 × 2.1 mm, 1.6 µm, 40 °C, 0.4 mL/min, estimated dead time 0.55 min; A: water + 0.1% formic acid, pH 3; B: acetonitrile + 0.1% formic acid, pH 3; gradient (min/%B) 0/5 1.12/5 6.41/99.5 10.01/99.5
Settings: stereoisomer not certain
For `O=C(O)c1ccnc2ccccc12` [4-QUINOLINECARBOXYLATE], the LC retention time was 0.782 min.
For `CCCCCCCCCCCCCCCCCC(=O)OC(CC(=O)[O-])C[N+](C)(C)C` [Stearoyl-L-carnitine], the LC retention time was 5.89 min.
`CCCCCCCCCCCC[n+]1cccc(S(=O)(=O)[O-])c1` [C12-APS] showed an LC retention time of 4.89 min.
`CCOC(=O)C(Cl)Cc1cc(-n2nc(C)n(C(F)F)c2=O)c(F)cc1Cl` (configuration not stated) [Carfentrazone-ethyl] gave an LC retention time of 5.39 min.
Work on `COc1cc(OC)nc(Oc2cccc(Oc3nc(OC)cc(OC)n3)c2C(=O)[O-])n1.[Na+]` [Bispyribac sodium salt] yielded an LC retention time of 4.63 min.
Work on `COC(=O)N(OC)c1ccccc1COc1ccn(-c2ccc(Cl)cc2)n1` [Pyraclostrobin] yielded an LC retention time of 5.6 min.
`O=c1[nH]c2c(c(=O)n1C1CCCCC1)CCC2` [Lenacil] showed an LC retention time of 3.96 min.
With `CCC(=O)OC(CC(=O)[O-])C[N+](C)(C)C` [Propionyl-L-carnitine] the LC retention time was 0.871 min.
Work on `COC(=O)CCCC(=O)O` [MONOMETHYLGLUTARATE] yielded an LC retention time of 2.47 min.
In the case of `COc1ccc(-c2ccccc2)cc1NNC(=O)OC(C)C` [Bifenazate], the LC retention time is reported as 5.09 min.
`CC(CCC(=O)NCCS(=O)(=O)O)C1CCC2C3CCC4CC(O)CCC4(C)C3CC(O)C12C` (configuration not stated) [Taurodeoxycholic acid] gave an LC retention time of 4.16 min.
`CCCCOC(=O)N(C)SN(C)C(=O)Oc1cccc2c1OC(C)(C)C2` [Furathiocarb] showed an LC retention time of 6.05 min.
In the case of `CC1C(=O)Nc2ccccc21` (configuration not stated) [3-METHYL-2-OXINDOLE], the LC retention time is reported as 3.39 min.
`CCCCCCCCCC=CC(=O)OC(CC(=O)[O-])C[N+](C)(C)C` [trans-2-Dodecenoyl-L-carnitine] gave an LC retention time of 4.5 min.
`Cc1cc(C)c(C2=C(OC(=O)CC(C)(C)C)C3(CCCC3)OC2=O)c(C)c1` [Spiromesifen] showed an LC retention time of 6.47 min.
With `Cc1cnc2c(C(=O)O)c(Cl)ccc2c1` [Quinmerac] the LC retention time was 3.17 min.
Molecule `CCOC(=O)Cc1c[nH]c2ccccc12` [ETHYL 3-INDOLEACETATE] has an LC retention time of 4.49 min.
In the case of `CC(C)C(=O)OC(CC(=O)[O-])C[N+](C)(C)C` [Isobutyryl-L-carnitine], the LC retention time is reported as 1.79 min.
Work on `CCOC(=O)N(C)C(=O)CSP(=S)(OCC)OCC` [Mecarbam] yielded an LC retention time of 5.34 min.
With `CCCCCCCCCCCCCCCCC[n+]1cccc(S(=O)(=O)[O-])c1` [C17-APS] the LC retention time was 6.34 min.
For `CC(CC(=O)O)C1CCC2C3CCC4CC(O)CCC4(C)C3CC(O)C12C` (configuration not stated) [Nor-Desoxycholic Acid], the LC retention time was 4.88 min.
Work on `NC(Cc1cc(I)c(Oc2cc(I)c(O)c(I)c2)c(I)c1)C(=O)O` (configuration not stated) [THYROXINE] yielded an LC retention time of 3.97 min.
Molecule `CCCCCCCCCC[n+]1cccc(S(=O)(=O)[O-])c1` [C10-APS] has an LC retention time of 4.29 min.
`COC(=O)N(C(=O)N1COC2(C(=O)OC)Cc3cc(Cl)ccc3C2=N1)c1ccc(OC(F)(F)F)cc1` (configuration not stated) [Indoxacarb] showed an LC retention time of 5.75 min.
Molecule `O=C(O)CCCc1c[nH]c2ccccc12` [Indole-3-butyric acid] has an LC retention time of 3.94 min.
In the case of `CCNc1nc(Cl)nc(N(CC)CC)n1` [Trietazin], the LC retention time is reported as 5.23 min.
Work on `O=C(O)C(=O)Cc1ccccc1` [Phenylpyruvic acid] yielded an LC retention time of 2.29 min.
Molecule `COC(=O)c1ccccc1S(=O)(=O)NC(=O)Nc1nc(C)nc(OC)n1` [Metsulfuron-methyl] has an LC retention time of 3.99 min.
`CC1(C)CCC(Cc2ccc(Cl)cc2)C1(O)Cn1cncn1` (configuration not stated) [Metconazole] gave an LC retention time of 5.24 min.
For `CC(CCC(=O)O)C1CCC2C3C(=O)CC4CC(O)CCC4(C)C3CCC12C` (configuration not stated) [Nutriacholic Acid], the LC retention time was 4.8 min.
`O=C(O)c1ccc[nH]1` [PYRROLE-2-CARBOXYLATE] showed an LC retention time of 0.766 min.
`CCc1ccc(C(=O)NN(C(=O)c2cc(C)cc(C)c2)C(C)(C)C)cc1` [Tebufenozide] gave an LC retention time of 5.33 min.
`O=C(Nc1ccc(F)cc1)c1cccc(Oc2cccc(C(F)(F)F)c2)n1` [Picolinafen] gave an LC retention time of 5.93 min.
In the case of `CC(C)CC(=O)OC(CC(=O)[O-])C[N+](C)(C)C` [Isovaleryl-L-carnitine], the LC retention time is reported as 2.61 min.
For `CSC(C)=NOC(=O)N(C)SN(C)C(=O)ON=C(C)SC` [Thiodicarb], the LC retention time was 4 min.
In the case of `COP(N)(=S)Oc1ccccc1C(=O)OC(C)C` (configuration not stated) [Isocarbophos], the LC retention time is reported as 2.32 min.
Work on `C[C@H](CCC(=O)O)[C@H]1CC[C@H]2[C@@H]3[C@H](O)C[C@@H]4C[C@H](O)CC[C@]4(C)[C@H]3CC(=O)[C@]12C` [(3ALPHA,5BETA,7ALPHA)-3,7-DIHYDROXY-12-OXOCHOLAN-24-OIC ACID] yielded an LC retention time of 4.24 min.
In the case of `COP(=O)(OC)OC=C(Cl)Cl` [Dichlorvos], the LC retention time is reported as 3.89 min.
`CCCCCC=CCC=CCC=CCC=CCCCC(=O)OC(CC(=O)[O-])C[N+](C)(C)C` [Arachidonyl-L-carnitine] showed an LC retention time of 5.35 min.
`CC(C)CCCC(C)C1CCC2C3C(=O)C=C4CC(O)CCC4(C)C3CCC12C` (stereo not drawn) [5-Cholesten-3β-ol-7-one] gave an LC retention time of 7.56 min.
In the case of `CC(CCC(=O)NCCS(=O)(=O)O)C1CCC2C3C(O)CC4CC(O)CCC4(C)C3CCC12C` (configuration not stated) [Tauroursodeoxycholic acid], the LC retention time is reported as 4.18 min.
With `CC1(C(=O)Nc2ccc(O)c(Cl)c2Cl)CCCCC1` [Fenhexamid] the LC retention time was 5 min.
